In article PMC6389928, “Biomolecular Interaction, Anti-Cancer and Anti-Angiogenic Properties of Cobalt(III) Schiff Base Complexes” (Scientific Reports, 2019):
Like-named read-outs stand apart in the source and are kept apart here.

Assays:
DNA [1] = settings: cited from earlier work
A549 lung carcinoma cell = assay: MTT assay on A549 cells; settings: A549 lung cancer cells, tested separately
Description: The anti-proliferative property of the complexes 1 and 2 at different concentrations on A549 lung carcinoma cell and monkey kidney epithelial cell Vero was examined by adopting MTT assay (Fig. S7). […] The naked cobalt acetate and ligands salen and salophen were separately tested on A549 cells to understand if metal chelation is the principal basis of the anticancer activity of the complexes.
Culture: Human lung cancer cells (A549) were received from National Centre for Cell Science (NCCS) Pune, India. Vero cells were obtained from ATCC. The cells were grown at humidified atmosphere of 5% CO2 in an incubator at 37 °C (Forma, Thermo Scientific, USA) in DMEM medium (Invitrogen) containing 10% FBS (Sigma-Aldrich, St. Louis, Mo, USA), 100 μg/mL of penicillin and 100 μg/mL streptomycin were used as antibiotics (Himedia, Mumbai, India). […] The cells were seeded in 96 well plates (5000 A549 cells per well) and allowed to attach for 24 h. The cells were then incubated with different concentrations of the metal complexes 1 and 2 dissolved in 100% dimethyl sulfoxide (DMSO) (Sigma-Aldrich) and prepared to a final dilution of 0.02% of DMSO.
In the determination of IC50 value, 0.02% DMSO was used as the solvent control. After the end of incubation period (24 h), the medium was aspirated carefully and replaced with new medium. The formazan formed was dissolved in100 μL of 100% DMSO to each well. The absorbance was monitored at 570 nm using a 96 well plate reader (Bio-Rad, Hercules, California, USA). All experiments were repeated for a minimum of three times when each experiment was done in two replicates.

DNA [2] = assay: Viscosity measurement of DNA; assay type: binding; settings: 30.0 ± 0.2 °C, increasing amounts of compound
Description: The mode of interaction between DNA and complexes has been further confirmed using viscosity measurements. The intercalation between DNA and metal complex causes lengthening of the DNA helix and increases DNA’s relative viscosity. Ethidium bromide (EB) is a well known DNA intercalator which was used as a standard to make sure our viscosity determination was working properly. […] The increase in relative viscosity follows the DNA-intercalating ability and the order of relative viscosity is EB > 2 > 1.
CD spectra of CT–DNA in the absence and presence of cobalt(III) complexes 1 and 2 were recorded in phosphate buffer. Each sample solution was scanned in the range of 200–320 nm, and final CD spectra were generated after averaging three scans subtracting the buffer background. Viscosity experiments were performed using an Ubbelohde viscometer at a constant temperature (30.0 ± 0.2 °C).

Molecule	Kb (DNA [1])	concentration up to which not cytotoxic (A549 lung carcinoma cell)	further results
CCCCCCCCCCCCN.NCCNCCN.[Cl-].[Cl-].[Co+3].[O-][Cl+3]([O-])([O-])[O-] [[Co(dien)(DA)Cl2](ClO4)]	3110.8 M⁻¹	–	–
CCCCCCCCCCCCCCN.[Cl-].[Co+3].[O-][Cl+3]([O-])([O-])[O-].[O-][Cl+3]([O-])([O-])[O-].c1ccc(-c2ccccn2)nc1.c1ccc(-c2ccccn2)nc1 [cis-[Co(bpy)2(C14H29NH2)Cl](ClO4)2]	28600 M⁻¹	–	–
CCCCCCCCCCCCN.CCCCCCCCCCCCN.NCCNCCN.[Cl-].[Co+3].[O-][Cl+3]([O-])([O-])[O-].[O-][Cl+3]([O-])([O-])[O-] [[Co(dien)(DA)2Cl](ClO4)2]	14318 M⁻¹	–	–
Oc1ccccc1C=NCCN=Cc1ccccc1O [salen, N,N’-bis(salicylidene)ethylenediamine]	–	> 200 µM	–
CCCCCCCCCCCN.[Cl-].[Co+3].[O-][Cl+3]([O-])([O-])[O-].[O-][Cl+3]([O-])([O-])[O-].c1ccc(-c2ccccn2)nc1.c1ccc(-c2ccccn2)nc1 [cis-[Co(bpy)2(C11H23NH2)Cl](ClO4)2]	22100 M⁻¹	–	–
CC(=O)[O-].CC(=O)[O-].O.O.O.O.[Co+2] [cobalt acetate, Cobalt(II) acetate tetrahydrate]	–	> 200 µM	–
Oc1ccccc1C=Nc1ccccc1N=Cc1ccccc1O [salophen, N,N’-bis(salicylidene)-1,2-phenylenediamine]	–	> 200 µM	–
CC[n+]1c(-c2ccccc2)c2cc(N)ccc2c2ccc(N)cc21 [EB, ethidium bromide, reference compound]	–	–	effect on relative viscosity of DNA (DNA [2]): significant increase in the viscosity of the DNA solutions; Kb (DNA [1]; typical classical intercalator): 494000 M⁻¹
[Co(dien)(CA)Cl2](ClO4)	9005.2 M⁻¹	–	–
CCCCCCCCCCCCCCN.NCCN.NCCN.[Cl-].[Co+3].[O-][Cl+3]([O-])([O-])[O-].[O-][Cl+3]([O-])([O-])[O-] [cis-[Co(en)2(C14H29NH2)Cl](ClO4)2]	25900 M⁻¹	–	–
